Assay results from patent US20240384350A1, “METHODS OF TREATING CANCER WITH KINASE INHIBITORS” (BOARD OF REGENTS, THE UNIVERSITY OF TEXAS SYSTEM, priority 2021, published 2024).

What was measured:
Assay in all cases: Ba/F3 drug screening, Cell Titer Glo, IC50 Mut/WT
Assay type in all cases: cell-based
[1] = biological target: T1, EGFR L858R/V834L (Homo sapiens, UniProt P00533, L858R/V834L); details: Classical-Like, 72 hours
T1 construct: expressed in transfected cells; host or cells: Ba/F3 cells, retroviral pBabe-Puro vector

[2] = biological target: T2, EGFR N771dupN (Homo sapiens, UniProt P00533, DUP771-771); details: Ex20, 72 hours
T2 construct: expressed in transfected cells; host or cells: Ba/F3 cells, retroviral pBabe-Puro vector

[3] = biological target: T3, EGFR E709K G719S (Homo sapiens, UniProt P00533, E709K/G719S); details: Ba/F3 cells, EGFR E709K G719S (PACC), Mut/WT
T3 construct: expressed in transfected cells; host or cells: Ba/F3
Method: (§1) Data represent the ratio of the IC50 value for a given TKI for cells with a PACC EGFR mutation to the IC50 value for cells with wildtype EGFR.
(§2) Ba/F3 cell generation, drug screening, and IC50 approximations. Ba/F3 cells were obtained as a gift from Dr. Gordon Mills (MD Anderson Cancer Center), and maintained in RPMI (Sigma) containing 10% FBS, 1% penicillin/streptomycin, and 10 ng/ml recombinant mIL-3 (R&D Biosystems). To establish stable Ba/F3 cell lines, Ba/F3 cells were transduced with retroviruses containing mutant EGFR plasmids for 12-24 hours.
(§3) After 48-72 hours of transduction, 2 μg/ml puromycin (Invitrogen) was added to Ba/F3 cell lines in complete RPMI. To select for EGFR positive cell lines, cells were stained with PE-EGFR (Biolegend) and sorted by FACS. After sorting, EGFR positive cells were maintained in RPMI containing 10% FBS, 1% penicillin/streptomycin, and 1 ng/ml EGF to support cell viability. Drug screening was performed as previously described^41,42. Shortly, cells were plated in 384-well plates (Greiner Bio-One) at 2000-3000 cells per well in technical triplicate. Seven different concentrations of TKIs or DMSO vehicle were added to reach a final volume of 40 μL per well. After 72 hours, 11 μL of Cell Titer Glo (Promega) was added to each well. Plates were incubated for a minimum of 10 minutes, and bioluminescence was determined using a FLUOstar OPTIMA plate reader (BMG LABTECH). Raw bioluminescence values were normalized to DMSO control treated cells, and values were plotted in GraphPad Prism. […] Drug screens were performed in technical triplicate on each plate and either duplicate or triplicate biological replicates.

[4] = biological target: T4, EGFR Ex19del/T790M/G724S (Homo sapiens, UniProt P00533, DEL746-750/G724S/T790M); details: T790M-like-3S, 72 hours
T4 construct: expressed in transfected cells; host or cells: Ba/F3
Method: (§4) Data represent the ratio of the IC50 value for a given TKI for cells with a T790M-like-3S EGFR mutation to the IC50 value for cells with wildtype EGFR.
as §2, §3

[5] = biological target: T5, EGFR K754E (Homo sapiens, UniProt P00533, K754E); details: Classical-Like, 72 hours
T5 construct: expressed in transfected cells; host or cells: Ba/F3 cells, retroviral pBabe-Puro vector
Method: (§5) Data represent the ratio of the IC50 value for a given TKI for cells with a classical-like EGFR mutation to the IC50 value for cells with wildtype EGFR.
as §2
(§6) After 48-72 hours of transduction, 2 μg/ml puromycin (Invitrogen) was added to Ba/F3 cell lines in complete RPMI. To select for EGFR positive cell lines, cells were stained with PE-EGFR (Biolegend) and sorted by FACS. After sorting, EGFR positive cells were maintained in RPMI containing 10% FBS, 1% penicillin/streptomycin, and 1 ng/ml EGF to support cell viability. […] Shortly, cells were plated in 384-well plates (Greiner Bio-One) at 2000-3000 cells per well in technical triplicate. Seven different concentrations of TKIs or DMSO vehicle were added to reach a final volume of 40 μL per well. After 72 hours, 11 μL of Cell Titer Glo (Promega) was added to each well. Plates were incubated for a minimum of 10 minutes, and bioluminescence was determined using a FLUOstar OPTIMA plate reader (BMG LABTECH). Raw bioluminescence values were normalized to DMSO control treated cells, and values were plotted in GraphPad Prism. […] Drug screens were performed in technical triplicate on each plate and either duplicate or triplicate biological replicates.

[6] = biological target: T6, EGFR D770insNPG (Homo sapiens, UniProt P00533, INS770NPG); details: Ex20, 72 hours
T6 construct: expressed in transfected cells; host or cells: Ba/F3 cells, retroviral pBabe-Puro vector

[7] = biological target: T7, EGFR L858R T790M L792H (Homo sapiens, UniProt P00533, L792H/L858R/T790M); details: T790M-like-3S, 72 hours
T7 construct: expressed in transfected cells; host or cells: Ba/F3
Method: as §4, §2, §3

[8] = biological target: T8, EGFR S768I/T790M (Homo sapiens, UniProt P00533, S768I/T790M); details: T790M-like-3S, 72 hours
T8 construct: expressed in transfected cells; host or cells: Ba/F3
Method: as §4, §2, §3

[9] = biological target: T9, EGFR L858R/T790M (Homo sapiens, UniProt P00533, L858R/T790M); details: T790M-like-3S, 72 hours
T9 construct: expressed in transfected cells; host or cells: Ba/F3

[10] = biological target: T10, EGFR G724S (Homo sapiens, UniProt P00533, G724S); details: Ba/F3 cells, EGFR G724S (PACC), Mut/WT
T10 construct: expressed in transfected cells; host or cells: Ba/F3

[11] = biological target: T11, EGFR G724S T790M (Homo sapiens, UniProt P00533, G724S/T790M); details: T790M-like-3R, 72 hours
T11 construct: expressed in transfected cells; host or cells: Ba/F3
Method: Data represent the ratio of the IC50 value for a given TKI for cells with a T790M-like-3R EGFR mutation to the IC50 value for cells with wildtype EGFR.
as §2
After 48-72 hours of transduction, 2 μg/ml puromycin (Invitrogen) was added to Ba/F3 cell lines in complete RPMI. To select for EGFR positive cell lines, cells were stained with PE-EGFR (Biolegend) and sorted by FACS. After sorting, EGFR positive cells were maintained in RPMI containing 10% FBS, 1% penicillin/streptomycin, and 1 ng/ml EGF to support cell viability. […] Shortly, cells were plated in 384-well plates (Greiner Bio-One) at 2000-3000 cells per well in technical triplicate. Seven different concentrations of TKIs or DMSO vehicle were added to reach a final volume of 40 μL per well. After 72 hours, 11 μL of Cell Titer Glo (Promega) was added to each well. Plates were incubated for a minimum of 10 minutes, and bioluminescence was determined using a FLUOstar OPTIMA plate reader (BMG LABTECH). Raw bioluminescence values were normalized to DMSO control treated cells, and values were plotted in GraphPad Prism. […] Drug screens were performed in technical triplicate on each plate and either duplicate or triplicate biological replicates. […] Statistical differences between groups were determined by ANOVA as described in the figure legends.

[12] = biological target: T12, EGFR L858R/C797S (Homo sapiens, UniProt P00533, C797S/L858R); details: Ba/F3 cells, EGFR L858R/C797S (PACC), Mut/WT
T12 construct: expressed in transfected cells; host or cells: Ba/F3

[13] = biological target: T13, EGFR R776H (Homo sapiens, UniProt P00533, R776H); details: Ba/F3 cells, EGFR R776H (PACC), Mut/WT
T13 construct: host or cells: Ba/F3
Method: as §1, §2, §3

[14] = biological target: T14, EGFR Ex19del/T790M/L792H (Homo sapiens, UniProt P00533, DEL746-750/L792H/T790M); details: T790M-like-3R, 72 hours
T14 construct: expressed in transfected cells; host or cells: Ba/F3

[15] = biological target: T15, EGFR L718Q (Homo sapiens, UniProt P00533, L718Q); details: Ba/F3 cells, EGFR L718Q (PACC), Mut/WT
T15 construct: expressed in transfected cells; host or cells: Ba/F3
Method: as §1, §2, §3

[16] = biological target: T16, EGFR S811F (Homo sapiens, UniProt P00533, S811F); details: Classical-Like, 72 hours
T16 construct: expressed in transfected cells; host or cells: Ba/F3 cells, retroviral pBabe-Puro vector (vector made by GeneScript from EGFR WT)

[17] = biological target: T17, EGFR Ex19del T790M L718V (Homo sapiens, UniProt P00533, DEL746-750/L718V/T790M); details: T790M-like-3S, 72 hours
T17 construct: expressed in transfected cells; host or cells: Ba/F3
Method: as §4, §2, §3

[18] = biological target: T18, EGFR S768I V774M (Homo sapiens, UniProt P00533, S768I/V774M); details: Ba/F3 cells, EGFR S768I V774M (PACC), Mut/WT
T18 construct: host or cells: Ba/F3
Method: as §1, §2, §3

[19] = biological target: T19, EGFR Ex19del/C797S (Homo sapiens, UniProt P00533, C797S/DEL746-750); details: Ba/F3 cells, EGFR Ex19del/C797S (PACC), Mut/WT
T19 construct: expressed in transfected cells; host or cells: Ba/F3
Method: as §1, §2, §3

[20] = biological target: T20, EGFR L858R L718Q (Homo sapiens, UniProt P00533, L718Q/L858R); details: Ba/F3 cells, EGFR L858R L718Q (PACC), Mut/WT
T20 construct: host or cells: Ba/F3
Method: as §1, §2, §3

[21] = biological target: T21, EGFR L718V (Homo sapiens, UniProt P00533, L718V); details: Ba/F3 cells, EGFR L718V (PACC), Mut/WT
T21 construct: expressed in transfected cells; host or cells: Ba/F3
Method: as §1, §2, §3

[22] = biological target: T22, EGFR L858R/L718V (Homo sapiens, UniProt P00533, L718V/L858R); details: Ba/F3 cells, EGFR L858R/L718V (PACC), Mut/WT
T22 construct: host or cells: Ba/F3
Method: as §1, §2, §3

[23] = biological target: T23, EGFR L858R (Homo sapiens, UniProt P00533, L858R); details: Classical-Like, 72 hours
T23 construct: expressed in transfected cells; host or cells: Ba/F3 cells, retroviral pBabe-Puro vector
Method: as §5, §2, §6

[24] = biological target: T24, EGFR G719A/R776C (Homo sapiens, UniProt P00533, G719A/R776C); details: Ba/F3 cells, EGFR G719A/R776C (PACC), Mut/WT
T24 construct: expressed in transfected cells; host or cells: Ba/F3

[25] = biological target: T25, EGFR S768I/V769L (Homo sapiens, UniProt P00533, S768I/V769L); details: Ba/F3 cells, EGFR S768I/V769L (PACC), Mut/WT
T25 construct: host or cells: Ba/F3
Method: as §1, §2, §3

[26] = biological target: T26, EGFR S768I (Homo sapiens, UniProt P00533, S768I); details: Ba/F3 cells, EGFR S768I (PACC), Mut/WT
T26 construct: expressed in transfected cells; host or cells: Ba/F3
Method: as §1, §2
After 48-72 hours of transduction, 2 μg/ml puromycin (Invitrogen) was added to Ba/F3 cell lines in complete RPMI. To select for EGFR positive cell lines, cells were stained with PE-EGFR (Biolegend) and sorted by FACS. After sorting, EGFR positive cells were maintained in RPMI containing 10% FBS, 1% penicillin/streptomycin, and 1 ng/ml EGF to support cell viability. Drug screening was performed as previously described^41,42. Shortly, cells were plated in 384-well plates (Greiner Bio-One) at 2000-3000 cells per well in technical triplicate. Seven different concentrations of TKIs or DMSO vehicle were added to reach a final volume of 40 μL per well. After 72 hours, 11 μL of Cell Titer Glo (Promega) was added to each well. Plates were incubated for a minimum of 10 minutes, and bioluminescence was determined using a FLUOstar OPTIMA plate reader (BMG LABTECH). Raw bioluminescence values were normalized to DMSO control treated cells, and values were plotted in GraphPad Prism. […] Drug screens were performed in technical triplicate on each plate and either duplicate or triplicate biological replicates. […] Statistical differences between groups were determined by ANOVA as described in the figure legends.

SMILES	ratio of IC50 for cells with mutant EGFR to IC50 for cells with wildtype EGFR (Mut/WT) [1]	ratio of IC50 for cells with mutant EGFR to IC50 for cells with wildtype EGFR (Mut/WT) [2]	ratio of the IC50 value for cells with a PACC EGFR mutation to the IC50 value for cells with wildtype EGFR [3]	ratio of IC50 for cells with mutant EGFR to IC50 for cells with wildtype EGFR (Mut/WT) [4]	ratio of IC50 for cells with mutant EGFR to IC50 for cells with wildtype EGFR (Mut/WT) [5]	ratio of IC50 for cells with mutant EGFR to IC50 for cells with wildtype EGFR (Mut/WT) [6]	ratio of IC50 for cells with mutant EGFR to IC50 for cells with wildtype EGFR (Mut/WT) [7]	ratio of IC50 for cells with mutant EGFR to IC50 for cells with wildtype EGFR (Mut/WT) [8]	ratio of IC50 for cells with mutant EGFR to IC50 for cells with wildtype EGFR (Mut/WT) [9]	ratio of the IC50 value for cells with a PACC EGFR mutation to the IC50 value for cells with wildtype EGFR [10]	ratio of IC50 for cells with mutant EGFR to IC50 for cells with wildtype EGFR (Mut/WT) [11]	ratio of the IC50 value for cells with a PACC EGFR mutation to the IC50 value for cells with wildtype EGFR [12]	ratio of the IC50 value for cells with a PACC EGFR mutation to the IC50 value for cells with wildtype EGFR [13]	ratio of IC50 for cells with mutant EGFR to IC50 for cells with wildtype EGFR (Mut/WT) [14]	ratio of the IC50 value for cells with a PACC EGFR mutation to the IC50 value for cells with wildtype EGFR [15]	ratio of IC50 for cells with mutant EGFR to IC50 for cells with wildtype EGFR (Mut/WT) [16]	ratio of IC50 for cells with mutant EGFR to IC50 for cells with wildtype EGFR (Mut/WT) [17]	ratio of the IC50 value for cells with a PACC EGFR mutation to the IC50 value for cells with wildtype EGFR [18]	ratio of the IC50 value for cells with a PACC EGFR mutation to the IC50 value for cells with wildtype EGFR [19]	ratio of the IC50 value for cells with a PACC EGFR mutation to the IC50 value for cells with wildtype EGFR [20]	also measured
C=CC(=O)Nc1cc(Nc2nccc(-c3c[nH]c4ccccc34)n2)c(OC)cc1N(C)CCN(C)C [AZ5104]	0.4038	0.6044	0.7973	1.673	0.01871	1.976	0.5871	1.619	0.1777	36.15	0.428	119.2	3.409	1.486	11.32	0.002871	0.7041	0.5809	49.96	1.635	ratio of the IC50 value for cells with a PACC EGFR mutation to the IC50 value for cells with wildtype EGFR [21]: 2.622; ratio of the IC50 value for cells with a PACC EGFR mutation to the IC50 value for cells with wildtype EGFR [22]: 1.64; ratio of IC50 for cells with mutant EGFR to IC50 for cells with wildtype EGFR (Mut/WT) [23]: 0.1965; ratio of the IC50 value for cells with a PACC EGFR mutation to the IC50 value for cells with wildtype EGFR [24]: 0.2136; ratio of the IC50 value for cells with a PACC EGFR mutation to the IC50 value for cells with wildtype EGFR [25]: 0.599; ratio of the IC50 value for cells with a PACC EGFR mutation to the IC50 value for cells with wildtype EGFR [26]: 1.361
C=CC(=O)Nc1cc(Nc2ncc(C(=O)OC(C)C)c(-c3cn(C)c4ccccc34)n2)c(OC)cc1N(C)CCN(C)C [TAK-788 (mobocertinib), mobocertinib]	0.006056	0.8508	2.046	3.12	0.1738	1.211	3.326	10.82	0.7565	108.6	48.31	57.42	2.853	0.885	16.38	0.003195	3.032	1.227	43.27	2.996	ratio of the IC50 value for cells with a PACC EGFR mutation to the IC50 value for cells with wildtype EGFR [21]: 39.29; ratio of the IC50 value for cells with a PACC EGFR mutation to the IC50 value for cells with wildtype EGFR [22]: 3.491; ratio of IC50 for cells with mutant EGFR to IC50 for cells with wildtype EGFR (Mut/WT) [23]: 0.0472; ratio of the IC50 value for cells with a PACC EGFR mutation to the IC50 value for cells with wildtype EGFR [24]: 0.8144; ratio of the IC50 value for cells with a PACC EGFR mutation to the IC50 value for cells with wildtype EGFR [25]: 0.04994; ratio of the IC50 value for cells with a PACC EGFR mutation to the IC50 value for cells with wildtype EGFR [26]: 0.7766
